Reference: patent publication US7569695B2, “Dyes for the detection or quantification of desirable target molecules” (Enzo Life Sciences, Inc., priority 2005, dated 2009)

Legend:
Assay type in all cases: biochemical
[1] = tested on: 78 bp amplicon of the anti-sense C construct; experiment: Amplification on the Light Cycler in the presence of Dye 122 and 109a, 19 cycles (Example 35)
Description: A target template was amplified on the Light Cycler (Roche) in the presence of various amounts of SYBR Green and Dye 122 from Example 32. In addition, a byproduct from the silica gel chromatography of Dye 109 in step (g) of Example 14 was also used. This compound is believed to have a single protonation of one of the amines of Dye 109 and as such will be termed Dye 109a. The stock of Dye 122 was OD=200 measured at 488 nm and the stock of Dye 109a was OD=200 measured at 498 nm. The template was a 1:50,000 dilution of the 78 bp amplicon of the anti-sense C construct described previously. • A master-mixture was made up of: • 350 µl of 2×PCR mix described in Example 33 • 14 l of 25 mM MgCl2 • 175.0 l of DEPC treated H2O • 7 l of 10 mg/ml BSA (New England Biolabs, Beverly, Mass.) • 7 l Taq polymease (Perkin Elmer)+7 l of TaqStart (Clontech)
2.0 l of target template+2.0 l of various dye dilutions were added to 16 µl of Master mixture, and then amplified as described previously in Example 33 except that the incubation at 45° C. for 10 minutes was eliminated since ung was not used for this series of amplifications. The amplification was stopped after 19 cycles. The results of this series of amplifications are seen in FIG. 3. […] For Dye 109a, similar features were seen where 1:10 was inhibitory (lane 18) and 1:30 was optimal (lanes 19 and 20).

[2] = tested on: 78 bp amplicon of the anti-sense C construct; experiment: Amplification on the Light Cycler with closer series of dye dilutions, 17 cycles (Example 36); conditions: a fairly broad spectrum of dye dilutions
Description: A series of dilutions that were closer together was carried out for both Dye 109a and Dye 122. The target template was amplified on the Light Cycler and the template was the 1:50,000 dilution of the 78 bp amplicon of the anti-sense C construct described previously.
A master mixture was made up as described previously in Example 35.
2.0 l of target template (1:50,000 dilution of the antisense C amplicon)+2.0 l of various dye concentrations were added to 16 µl of Master mix and then amplified as described previously in Example 33 and stopping after 17 amplification cycles.

[3] = tested on: anti-sense C amplicon; experiment: Amplification of various amounts of target with fixed dye levels, 29 cycles (Example 37)
Description: In the previous experiments, a fixed amount of target was amplified in the presence of varying level of dyes. The eventual use of these dyes is going to be with a fixed amount of dye and varying levels of targets. As such, an experiment was carried out using previously determined optimal levels of dyes and various amounts of input target (again using the anti-sense C as a model). • Dilution 1=1:100,000 • Dilution 2=1:1,000,000 • Dilution 3=1:10,000,000 • Dilution 4=1:100,000,000 • Dilution 5=1:1,000,000,000 • Dilution 6=1:10,000,000,000
Selected amounts of target template were amplified on the Light Cycler (Roche) in the presence of various amounts of Dye 122, Dye 109a and SYBR Green.
A master mixture was made up of: • 380 l of 2×PCR mix described in Example 33 • 15.2 l of 25 mM MgCl2 • 190.0 l of DEPC treated H2O • 7.6 l of 10 mg/ml BSA (New England Biolabs, Beverly, Mass.) • 7.6 l Taq polymease (Perkin Elmer)+7.6 l of TaqStart (Clontech)
2.0 l of target template (1:50,000 dilution of the antisense C amplicon)+2.0 l of various dye concentrations were added to 16 µl of Master mixture and amplified as described previously in Example 33 stopping after 29 cycles. Dye additions were from the 1:1000 dilution of SYBR Green, 1:30 of Dye 109a and 1:30 of Dye 122.
At the highest input level (Dil 2 1:1,000,000 dilution of amplicon) no evidence of amplification is seen in the sample without dye.

Q: Which results are given for `CN(C)CCN(C)C1=C/C(=C\c2sc3cc(S(=O)(=O)N4CCCCC4)ccc3[n+]2C)c2ccccc2N1c1ccccc1` [Dye 122]?
A: amplification (gel analysis, FIG. 3) ([1]; 1:10 dilution of dye stock (OD=200)): inhibitory; amplification (gel analysis, FIG. 3) ([1]; 1:30 dilution of dye stock (OD=200)): the best; amplification (gel analysis, FIG. 3) ([1]; next dye dilutions (1:100 etc.)): less amplification; amplification (gel analysis, FIG. 4) [2]: strong enhancement effect; amplification product (gel analysis, FIG. 5) ([3]; Dil 2 (1:1,000,000) target input, 1:30 dilution of dye): strong prominent band; amplification product (gel analysis, FIG. 5) ([3]; target inputs diluted 10-100× more than Dil 2, 1:30 dilution of dye): visible bands
